{
  "source": "patent EP3325012B1",
  "about": "“CINEOLE-CONTAINING COMPOSITION FOR TREATING NOSE POLYPS” (Maria Clementine Martin Klosterfrau Vertriebsgesellschaft …, priority 2015, dated 2017)",
  "key": {"Akt": {"system": "Akt", "assay": "Western blot of Akt and P-Akt in nasal polyp protein extracts", "assay_type": "cell-based, Mensch", "conditions": "100 µM; all analysed protein extracts of nasal polyps (Figur 5)", "description": "(§1) Lysate von Geweben wurden durch Erhitzen über einen Zeitraum von 5 Minuten in einfachem SDS-Probenpuffer (Carl Roth GmbH, Karlsruhe, Deutschland) denaturiert. Die Proteinkonzentrationen wurden mittels des Bradford-Tests bestimmt und jeweils 30 µg Gesamtprotein wurden zur SDS-Polyacrylamid-Gel Elektrophorese eingesetzt (Mini-Protean TGX®, Any kD, BioRad, Hercules, CA, USA) und anschließend auf Nitrozellulosemembranen übertragen. Die Übertragung der Proteine wurde mittels Ponceau-Färbung kontrolliert.\nNeben der Phosphorylierung an Serin-9/-21 wird die GSK-3-Aktivität auch auf dem Level seiner subzellulären Lokalisierung reguliert. GSK-3 kann zur Trennung von seinen Substraten in endolysosomale Vesikel verlagert werden, um die Kinase-Aktivität zu verringern. […] GSK-3 ist in die Regulation von zahlreichen biosynthetischen Signalwegen involviert und zahlreiche Kinasen sind in der Lage, die GSK-3-Aktivität durch Phosphorylierung an dessen aktivierenden oder hemmenden Phosphorylierungsstellen zu regulieren. Die Akt-Kinase (auch bekannt als PKB) wurde als Onkogen mit Serin/Threonin-Kinase-Aktivität identifiziert und es wurde gezeigt, dass diese in vivo einen negativen Regulator der GSK3-beta Aktivität darstellt. Akt kann durch Phosphorylierung an Serin-473 durch PDK1 aktiviert werden, wobei davon ausgegangen wird, dass PHLPP als Inhibitor von dessen Phosphorylierung fungiert. […]"}, "[1]": {"system": "proinflamatorischer Zytokine", "conditions": "inhalation; cited from earlier work"}, "aktivem beta-Catenin": {"system": "aktivem beta-Catenin", "assay": "Western blot of active beta-catenin in nasal polyp tissue samples", "assay_type": "cell-based, Mensch", "conditions": "100 µM, 24 Stunden incubation, versus medium controls (Figur 3)", "source_text": "Proben von Nasenpolypen wurden in PBS gewaschen und vorsichtig homogenisiert. Es wurden Zellextrakte hergestellt und unter Verwendung von Lysepuffer 16 (\"Human pluripotent stem cell array\" (R&D Systems)) solubilisiert. Die Proteinkonzentrationen wurden bestimmt.\nas §1, with “kontrolliert. […]” for “kontrolliert.”\nUm die Beladungsmenge jeder Spur zu bestimmen, wurden die Nitrozellulosemembranen über Nacht bei 4 °C mit einem primären Antikörper der GAPDH (Cell Signaling Technology Inc., Massachusetts, Katalognummer: 14C10) in einer Verdünnung von 1 : 1.000 inkubiert. […] Die Pixeldichten wurden quantifiziert und mittels Fusion FX7® unter Einsatz von Bio-1D Software® dokumentiert. […]"}, "[2]": {"system": "permanente Zelllinien maligner Kopf-Hals-Tumoren", "assay": "Cell migration test (xCELLigence)", "assay_type": "cell-based", "conditions": "2 mM", "source_text": "Um den Einfluss von Cineol auf die zelluläre Migrations-Aktivität zu untersuchen, wurden Migrations-CIM-Platten 16 (Roche, Mannheim, Deutschland), bei welchen es sich um ein durch eine poröse Membran getrenntes 2-Kammer-System handelt, entsprechend der Bedienungsanleitung des Herstellers verwendet (Roche Diagnostics). Die Zellen wandern dabei von der oberen Kammer durch die Membran und haften an den elektronischen Sensoren an der Unterseite der Membran, so dass ein Anstieg der Impedanz resultiert. Die Veränderungen werden automatisch und kontinuierlich durch das RTCA-DP-Instrument aufgezeichnet, und die Zellmigrations-Aktivität kann durch das Zell-Index-Profil überwacht werden. Vor dem Befüllen der Wells mit Zellen (60.000 Zellen/Well) wurde die Unterseite der Wells der oberen Kammer der CIM-Platte 16 mit 30 µl Collagen I ([…], Sigma, Deisenhofen, Deutschland) beschichtet. Jede Behandlungsbedingung wurde in dreifacher Ausführung gemessen.\nNeben der zellulären Vitalität und Progression sowie dem Einfluss auf Apoptose und Zellzyklus hat die Anmelderin auch den Einfluss von Cineol auf das zelluläre Migrationsverhalten untersucht. […]"}},
  "data": [
    {"smiles": "CC12CCC(CC1)C(C)(C)O2", "note": "[1,8-Cineol, 1,3,3-Trimethyl-2-oxabicyclo[2.2.2]octan]", "values": [
      {"measurement": "Phosphorylierungslevel von Akt an Serin-473", "setting": "Akt", "value": "nicht wesentlich beeinflusst"},
      {"measurement": "proinflamatorische Zytokine", "setting": "[1]", "value": "deutlichen Reduktion"},
      {"measurement": "Expressionslevel von aktivem beta-Catenin", "setting": "aktivem beta-Catenin", "value": "verschwanden aktive beta-Catenin-Proteine fast vollständig"},
      {"measurement": "zelluläre Migrationsaktivität", "setting": "[2]", "value": "leichten Einfluss"}
    ]}
  ]
}
